{"source": "patent US11913031B2", "about": "“Method to reproduce circadian rhythms on a microfluidic chip” (Yissum Research Development Company of the Hebrew …, priority 2017, dated 2024)", "key": {"E6/E7low 653 hepatocytes": {"tested_on": "E6/E7low 653 hepatocytes", "assay": "Circadian gene expression (RNA sequencing, JTK_CYCLE) after dexamethasone entrainment, line 653", "assay_type": "cell-based, human", "settings": "100 μM (day medium), 24±4 hours period, adjusted p-values less than 0.005", "experimental": "(§1) E6/E7^low Upcyte™ hepatocytes line 422, from a donor, and line 653, from an old donor, were seeded in OSM-free differentiation media as previously described (Levy et al. Nature Biotechnology 2015). Following 5 days of differentiation, cells were synchronized in corticosteroid-free culture medium for 24 hours, followed by high 100 μM Dexamethasone dose (day medium), entraining a circadian cycle. Triplicate cell-lysate and media samples were collected every 4 hours in the following 2 days. RNA was extracted from lysate samples, using NucleoSpin® RNA (Qiagen, Valencia, Calif.) according to manufacturer's direction. RNA were further reverse-transcribed to increase stability of the molecules and tagmented with in-house produced primers containing unique-per-molecule tags along with unique-per-sample tag, using an in-house developed TN5 enzyme. […] Library construction was conducted using Illumina TruSeq RNA Library Prep V2 Kit (Illumina, San Diego, Calif.) according to manufacturer's protocol and sequenced on Illumina NextSeq500 with single-end, 86 bp reads using the High Output V2 Kit. Sequencing reads were filtered to unique reads only and mapped to the UCSC human transcriptome (genome build hg38) using Bowtie 2. Expression levels of all genes were quantified using bedtools. […]"}, "E6/E7low 422 hepatocytes": {"tested_on": "E6/E7low 422 hepatocytes", "assay": "Circadian gene expression (RNA sequencing, JTK_CYCLE) after dexamethasone entrainment, line 422", "assay_type": "cell-based, human", "settings": "100 μM (day medium), 24±4 hours period, adjusted p-values less than 0.005", "experimental": "as §1"}, "liver": {"tested_on": "liver", "settings": "Table 4 compound list, toxicological end-point; cited from earlier work"}, "E6/E7 hepatocytes": {"tested_on": "E6/E7 hepatocytes", "assay": "Conditional proliferation and EMT of E6/E7 human hepatocytes"}, "human hepatocytes": {"tested_on": "human hepatocytes", "assay": "Lipid accumulation in human hepatocytes", "assay_type": "cell-based", "experimental": "The present inventor uses IR-spectroscopy to track this metabolic signature in real time. Wild type and CRY1/2 knockout hepatocytes are perfused with (1) all hormones and factors (FIGS. 17A-B), or with time-average concentrations of (2) melatonin, (3) cortisol, (4) T3, (5) growth hormone, and (6) average temperature. Signature is analysed by IR-spectroscopy every 30 min for 24 hours. IR-spectra is critically compared to intracellular metabolites quantified by LC-MS/MS, as well as specific quantification of triglycerides and bile acids using commercially available kits (FIGS. 16A-F). […] Mechanism is evaluated by systematically perturbing regulators whose activity changed prior to steatosis."}, "HepG2/C3A cells": {"tested_on": "HepG2/C3A cells", "assay_type": "cell-based", "text": "FIGS. 11A-E—FIG. 11A—System schematic. FIG. 11B—Oxygen-quenched decay causes phase shift between the intensity-modulated excitation and emission light. Two-superimposed frequencies were used to screen out background interference. FIG. 11C—Fluorescence image of HepG2/C3A cells and sensor particles after immobilization in a collagen matrix.\nReal-time focus independent measurement of oxygen uptake in microfluidic bioreactor: Oxygen uptake is a critical measurement of mitochondrial function and metabolic activity^35, 36. However, electrochemical electrodes require frequent re-calibration, while optical sensors are affected by small changes in focus, cell migration and stage movement, making them unreliable for real time measurements of oxygen uptake. Therefore, the present inventor designed an optical system in which organoids are embedded with nanoprobes containing RuP dye and excited at 532 nm (FIGS. 11A-E). Oxygen is a quencher of RuP phosphorescence, leading to a decrease in decay time. Importantly, decay time is not sensitive to changes in probe concentration or excitation intensity (i.e. cell migration, mechanical movement). To measure in real-time, the present inventor used a novel two-frequency sinusoidal intensity-modulated light, allowing us to filter background interference while measuring phase shift in the emitted light."}, "HeLa cells": {"tested_on": "HeLa cells", "assay": "Acetaminophen loss of mitochondrial respiration repeated in HeLa cells", "assay_type": "cell-based"}}, "data": [{"molecule": "C[C@@H]1C[C@H]2[C@@H]3CCC4=CC(=O)C=C[C@]4(C)[C@@]3(F)[C@@H](O)C[C@]2(C)[C@@]1(O)C(=O)CO", "note": "[Dexamethasone, 9α-fluoro-11β,17α,21-trihydroxy-16α-methylpregna-1,4-diene-3,20-dione]", "values": [{"measurement": "genes with circadian expression pattern", "setting": "E6/E7low 653 hepatocytes", "result": 41, "unit": "genes"}, {"measurement": "genes with circadian expression pattern", "setting": "E6/E7low 422 hepatocytes", "result": 267, "unit": "genes"}]}, {"molecule": "CN(C)CCCN1c2ccccc2Sc2ccc(Cl)cc21", "note": "[Chlorpromazine]", "values": [{"measurement": "Toxicity", "setting": "liver", "result": "Cholestasis"}]}, {"molecule": "N#CC(=C(/N)Sc1ccccc1N)/C(C#N)=C(\\N)Sc1ccccc1N", "note": "[U0126]", "values": [{"measurement": "Epithelial-to-mesenchymal transition (EMT)", "setting": "E6/E7 hepatocytes", "result": "blocked"}, {"measurement": "epithelial morphology and cell polarization", "setting": "E6/E7 hepatocytes", "result": "stabilizing epithelial morphology and cell polarization"}]}, {"molecule": "COc1ccc2[nH]cc(CCNC(C)=O)c2c1", "note": "[melatonin, Melatonin]", "values": [{"measurement": "lipid accumulation", "setting": "human hepatocytes", "result": "induce lipid accumulation"}]}, {"molecule": "CC(=O)Oc1ccccc1C(=O)O", "note": "[Aspirin]", "values": [{"measurement": "Toxicity", "setting": "liver", "result": "Steatosis"}]}, {"molecule": "CC(=O)Nc1ccc(O)cc1", "note": "[Acetaminophen]", "values": [{"measurement": "effect on oxygen uptake over time", "setting": "HepG2/C3A cells", "result": "immediate, reversible, dose-dependent loss of oxygen uptake followed by a slow, irreversible, dose-independent death"}, {"measurement": "time at which immediate dose-dependent loss of oxygen uptake concludes", "setting": "HepG2/C3A cells; human", "result": 60, "unit": "min"}, {"measurement": "time to total cell death (slow dose-independent loss of oxygen uptake)", "setting": "HepG2/C3A cells; human", "result": "3 to 5", "unit": "days"}, {"measurement": "Toxicity", "setting": "liver", "result": "Apoptosis"}, {"measurement": "transient loss of mitochondrial respiration in cells that lack CYP2E1 and 3A4", "setting": "HeLa cells", "result": "repeated in HeLa cells"}]}, {"molecule": "Cc1c(C)c2c(c(C)c1O)CCC(C)(COc1ccc(CC3SC(=O)NC3=O)cc1)O2", "note": "(centres unmarked) [Troglitazone]", "values": [{"measurement": "Toxicity", "setting": "liver", "result": "Cholestasis"}]}, {"molecule": "Oncostatin m (protein, UniProt P13725 26-221, looked up) Oncostatin-M: AAIGSCSKEYRVLLGQLQKQTDLMQDTSRLLDPYIRIQGLDVPKLREHCRERPGAFPSEETLRGLGRRGFLQTLNATLGCVLHRLADLEQRLPKAQDLERSGLNIEDLEKLQMARPNILGLRNNIYCMAQLLDNSDTAEPTKAGRGASQPPTPTPASDAFQRKLEGCRFLHGYHRFMHSVGRVFSKWGESPNRSRR", "values": [{"measurement": "doubling time of Jak-STAT3 dependent proliferation", "setting": "E6/E7 hepatocytes; OSM stimulation", "result": 40, "unit": "h"}]}]}
